The text below walks through data of patent US9732094B2, “Arylquinazolines” (Merck Patent GmbH, priority 2013, dated 2017).

Broadly, the IC50 is the midpoint of a concentration-inhibition curve. As usually defined, the Ki is a measure of affinity in units of concentration, obtained from inhibition or displacement.

One data set has as its target DNA-PK (Homo sapiens (Human), UniProt P78527). Nature of the data set: DNA-PK assay (biochemical), flashplate 33P-ATP kinase assay. The note with it: biochemical DNA-PK assay. The essentials:
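Reactions ran in streptavidin-coated flashplates and were halted by 200 mM EDTA, with a further 30 min at room temperature before saline washing.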

Data set [1] has as its target DNA-PK phosphorylation at serine 2056 (Homo sapiens (Human), UniProt P78527). In words: DNA-PK phosphorylation at serine 2056 (cellular), bleomycin-treated HCT116 cells, ELISA. In kind it is cell-based. The note with it: cellular DNA-PK phosphorylation at serine 2056, HCT116; read-out: IC50 pDNA-PK. The essentials: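 Test compounds and bleomycin (10 μM) are added to adherent HCT116 cells for 6 h. Detection uses an HRP-based chemiluminescent ELISA, with phospho-DNA-PK signals standardised to total protein.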
In general terms: ELISA stands for enzyme-linked immunosorbent assay.

A further data set concerns the target Kv11.1 (hERG) (Homo sapiens (Human), UniProt Q12809). In words: Kv11.1 ion channel binding assay (Predictor hERG fluorescence polarisation). The note with it: cells marked *: measured using hERG binding assay instead of hERG patch clamp assay; read-out: Ki [Kv1.11 hERG]. Here is the method:
D) Kv11.1 Ion Channel Binding Assay
Kv11.1 (hERG=human ether a go-go related […]) is a cardiac K^+ channel which should if possible not interact with the test substances. This interaction is determined quantitatively with the aid of the Predictor™ hERG Fluorescence Polarizations (FP) Assays from Life Technologies. In the case of this assay principle, cardiomyocyte cell membranes having a certain proportion of Kv11.1 channels are isolated. A dye-labelled Kv11.1 binding partner gives a high fluorescence polarisation signal by interaction with the Kv11.1. In the case of displacement of the dye, a reduction in the fluorescence polarisation signal occurs.
The assay is carried out automatically as follows: 15 nl of the test substances (highest concentration: 10 mM, 10 concentrations: dilution factors 1:3.16, DMSO) are transferred into an empty microtitre plates having 384 wells by means of an acoustic pipetter. 3 μl of the isolated membranes are subsequently added. Membranes and test substances are incubated at 22° C. for 15 min (+/−5 min). In the next step, the dye-labelled binding partner is added, followed by incubation at 22° C. After incubation for two hours, the measurement of the fluorescence polarisation is carried out on an Envision multimode Reader. Measured raw data are standardised with the aid of Genedata Assay Analyzer. The 1050 and % effect values are calculated in Genedata Condoseo.

Kv11.1 (hERG), sequence (Q12809 whole entry): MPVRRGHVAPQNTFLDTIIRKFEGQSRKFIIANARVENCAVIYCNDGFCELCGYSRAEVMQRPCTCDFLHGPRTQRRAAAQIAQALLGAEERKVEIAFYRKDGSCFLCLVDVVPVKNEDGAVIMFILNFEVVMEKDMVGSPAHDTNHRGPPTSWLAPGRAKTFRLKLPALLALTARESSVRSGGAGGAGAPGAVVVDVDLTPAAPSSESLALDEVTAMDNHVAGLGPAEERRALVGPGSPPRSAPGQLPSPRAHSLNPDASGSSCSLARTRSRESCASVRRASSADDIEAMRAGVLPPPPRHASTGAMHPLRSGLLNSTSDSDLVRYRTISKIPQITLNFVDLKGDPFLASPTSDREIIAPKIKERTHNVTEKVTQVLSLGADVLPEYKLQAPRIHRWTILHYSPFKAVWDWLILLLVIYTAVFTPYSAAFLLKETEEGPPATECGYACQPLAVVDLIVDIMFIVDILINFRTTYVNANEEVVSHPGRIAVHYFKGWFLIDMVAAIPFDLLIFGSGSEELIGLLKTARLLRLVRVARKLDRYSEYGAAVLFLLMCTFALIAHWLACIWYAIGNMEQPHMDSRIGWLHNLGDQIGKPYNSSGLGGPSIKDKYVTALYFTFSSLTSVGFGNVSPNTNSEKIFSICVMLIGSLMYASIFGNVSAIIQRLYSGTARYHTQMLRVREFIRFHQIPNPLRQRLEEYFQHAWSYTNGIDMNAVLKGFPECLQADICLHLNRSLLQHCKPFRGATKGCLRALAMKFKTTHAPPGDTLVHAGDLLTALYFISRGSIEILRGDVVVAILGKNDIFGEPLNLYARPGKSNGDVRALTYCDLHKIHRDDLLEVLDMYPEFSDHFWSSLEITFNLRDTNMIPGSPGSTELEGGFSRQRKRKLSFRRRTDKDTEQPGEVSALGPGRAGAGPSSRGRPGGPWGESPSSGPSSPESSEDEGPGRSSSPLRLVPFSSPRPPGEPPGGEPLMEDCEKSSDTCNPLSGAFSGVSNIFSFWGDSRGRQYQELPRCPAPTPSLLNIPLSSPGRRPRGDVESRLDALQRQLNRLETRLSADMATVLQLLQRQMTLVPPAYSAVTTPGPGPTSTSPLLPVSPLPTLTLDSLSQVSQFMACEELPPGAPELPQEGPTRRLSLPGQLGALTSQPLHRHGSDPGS

Regarding `COc1nccnc1C(O)c1ccc(F)c(-c2ncnc3cc(N4CCOCC4)cc(F)c23)c1` (single isomer, unassigned) [Example 252, [4-Fluoro-3-(5-fluoro-7-morpholin-4-yl-quinazolin-4-yl)-phenyl]-(3-methoxy-pyrazin-2-yl)-methanol], the half-maximal inhibitory concentration (IC50) is below 3 nM on DNA-PK and below 500 nM in data set [1]. In addition, on Kv11.1 (hERG), the inhibition constant Ki is above 25000 nM.

On to `CN1N=C(C(O)c2cc(-c3ncnc4cc(N5CCOCC5)ccc34)c(F)cc2Cl)CCC1=O` (stereo not drawn) [Example 288, 6-{[2-Chloro-4-fluoro-5-(7-morpholin-4-yl-quinazolin-4-yl)-phenyl]hydroxy-methyl}-2-methyl-4,5-dihydro-2H-pyridazin-3-one], for which the results for the 50% inhibitory concentration (IC50) (at DNA-PK; in data set [1]) were 7 to 30 nM and 5000 to 10000 nM, respectively. For the same compound, the Ki at Kv11.1 (hERG) was above 25000 nM.

Regarding `CNC(=O)C(c1ccc(F)c(-c2ncnc3cc(N4CCOCC4)ccc23)c1)c1ncccc1Cl` (stereo not drawn) [Example 230, 2-(3-Chloro-pyridin-2-yl)-2-[4-fluoro-3-(7-morpholin-4-yl-quinazolin-4-yl)-phenyl]-N-methyl-acetamide], the concentration for half-maximal inhibition (IC50) fell in the range of 7 to 30 nM against DNA-PK and 5000 to 10000 nM in data set [1]. For the same compound, the inhibition constant Ki on Kv11.1 (hERG) was 15000 to 25000 nM.

Take `COc1ccc(C(O)c2cc(-c3ncnc4cc(N5CCOCC5)cc(F)c34)c(F)cc2Cl)nn1` (single isomer, unassigned) [Example 263, [2-Chloro-4-fluoro-5-(5-fluoro-7-morpholin-4-yl-quinazolin-4-yl)-phenyl]-(6-methoxy-pyridazin-3-yl)-methanol]: the figures for the IC50 (against DNA-PK; in data set [1]) were 7 to 30 nM and 10000 to 30000 nM, respectively. Further, on Kv11.1 (hERG), the Ki is above 25000 nM.

Turning to `Cc1nccnc1C(O)c1ccc(F)c(-c2ncnc3cc(N4CCOCC4)sc23)c1` (stereo not drawn) [Example 246, [4-Fluoro-3-(6-morpholin-4-yl-thieno[3,2-d}-pyrimidin-4-yl)-phenyl]-(3-methyl-pyrazin-2-yl)-methanol], the IC50 lay in the range of 3 to 7 nM at DNA-PK and 500 to 5000 nM in data set [1]. In addition, at Kv11.1 (hERG), the inhibition constant Ki was above 25000 nM.

Turning to `CNC(=O)C(c1cc(-c2ncnc3cc(N4CCOCC4)ccc23)c(F)cc1Cl)c1nccnc1C` (stereo not drawn) [Example 254, 2-[2-Chloro-4-fluoro-5-(7-morpholin-4-yl-quinazolin-4-yl)-phenyl]-N-methyl-2-(3-methyl-pyrazin-2-yl)acetamide], the IC50 on DNA-PK was in the range of 7 to 30 nM; in data set [1], 10000 to 30000 nM. On Kv11.1 (hERG), the Ki was above 25000 nM.

For the compound `[2H]C1([2H])OC([2H])([2H])C([2H])([2H])N(c2ccc3c(-c4cc(C(O)c5nccnc5OC)c(Cl)cc4F)ncnc3c2)C1([2H])[2H]` (stereo not drawn) [Example 258, [2-Chloro-4-fluoro-5-[7-(2,2,3,3,5,5,6,6-octadeutenomorpholin-4-yl)quinazolin-4-yl]phenyl]-(3-methoxypyrazin-2-yl)methanol], the half-maximal inhibitory concentration (IC50) on DNA-PK is 3 to 7 nM; in data set [1] it was below 500 nM. In addition, the Ki at Kv11.1 (hERG) was above 25000 nM.

For `OC(c1ccc(F)c(-c2ncnc3cc(N4CCOCC4)ccc23)c1)c1nccn2ncnc12` (stereo not drawn) [Example 279, [4-Fluoro-3-(7-morpholin-4-yl-quinazolin-4-yl)-phenyl]-[1,2,4]-triazolo[1,5-a]-pyrazin-8-ylmethanol], the values for the concentration for half-maximal inhibition (IC50) (against DNA-PK; in data set [1]) were 3 to 7 nM and 5000 to 10000 nM, respectively. For the same compound, the Ki at Kv11.1 (hERG) is above 25000 nM.

For `COc1ccc(C(O)c2ccc(F)c(-c3ncnc4cc(N5CCOCC5)cc(F)c34)c2)nn1` (stereo not drawn) [Example 256, [4-Fluoro-3-(5-fluoro-7-morpholin-4-yl-quinazolin-4-yl)-phenyl]-(6-methoxy-pyridazin-3-yl)-methanol], the figures for the half-maximal inhibitory concentration (IC50) (against DNA-PK; in data set [1]) were below 3 nM and below 500 nM, respectively. For the same compound, at Kv11.1 (hERG), the Ki is above 25000 nM.

Turning to `Cc1nccnc1C(O)c1cc(-c2ncnc3cc(N4CCOCC4)sc23)c(F)cc1Cl` (stereo not drawn) [Example 264, [2-Chloro-4-fluoro-5-(6-morpholin-4-yl-thieno[3,2-d}-pyrimidin-4-yl)-phenyl]-(3-methyl-pyrazin-2-yl)-methanol], the IC50 on DNA-PK is below 3 nM; in data set [1], below 500 nM. Further, the Ki on Kv11.1 (hERG) is above 25000 nM.

`COc1ccc(C(C(N)=O)c2cc(-c3ncnc4cc(N5CCOCC5)sc34)c(F)cc2Cl)nn1` (stereo not drawn) [Example 272, 2-[2-Chloro-4-fluoro-5-(6-morpholin-4-yl-thieno[3,2-d}-pyrimidin-4-yl)-phenyl]-2-(6-methoxy-pyridazin-3-yl)acetamide]: the values for the IC50 (against DNA-PK; in data set [1]) were 3 to 7 nM and 500 to 5000 nM, respectively. The Ki at Kv11.1 (hERG) was above 25000 nM.

Regarding `COc1nccnc1C(O)c1cc(-c2ncnc3cc(N4CCOCC4)cc(F)c23)c(F)cc1Cl` (stereo not drawn) [Example 249, [2-Chloro-4-fluoro-5-(5-fluoro-7-morpholin-4-yl-quinazolin-4-yl)-phenyl]-(3-methoxy-pyrazin-2-yl)-methanol], the IC50 is below 3 nM on DNA-PK and below 500 nM in data set [1]. Moreover, the inhibition constant (Ki) on Kv11.1 (hERG) is above 25000 nM.

For `Cc1nccnc1C(O)c1ccc(F)c(-c2ncnc3cc(N4CCOCC4)sc23)c1` (stereo not drawn) [Example 265, [4-Fluoro-3-(6-morpholin-4-yl-thieno[3,2-d}-pyrimidin-4-yl)-phenyl]-(3-methyl-pyrazin-2-yl)-methanol], the IC50 against DNA-PK is below 3 nM; in data set [1] it was below 500 nM. In addition, the inhibitory constant (Ki) at Kv11.1 (hERG) was above 25000 nM.

With `OC(c1ccc(F)c(-c2ncnc3cc(N4CCOCC4)ccc23)c1)c1ncnc2ccoc12` (stereo not drawn) [Example 471, [4-Fluoro-3-(7-morpholin-4-yl-quinazolin-4-yl)-phenyl]furo[3,2-d}-pyrimidin-4-yl-methanol], the values for the half-inhibitory concentration (IC50) (against DNA-PK; in data set [1]) were below 3 nM and below 500 nM, respectively. The inhibitory constant (Ki) on Kv11.1 (hERG) is above 25000 nM.

Turning to `Fc1cc(Cl)c(Cc2ccc3nccn3n2)cc1-c1ncnc2cc(N3CCOCC3)ccc12` [Example 235, 4-(4-Chloro-2-fluoro-5-imidazo[1,2-b]-pyridazin-6-ylmethyl - phenyl)-7-morpholin-4-ylquinazoline], the IC50 is below 3 nM against DNA-PK and below 500 nM in data set [1]. In addition, at Kv11.1 (hERG), the Ki was above 25000 nM.

Turning to `COc1ccc(C(O)c2cc(-c3ncnc4cc(N5CCOCC5)ccc34)ccc2Cl)nn1` (stereo not drawn) [Example 459, [2-Chloro-5-(7-morpholin-4-yl-quinazolin-4-yl)-phenyl]-(6-methoxy-pyridazin-3-yl)-methanol], the half-maximal inhibitory concentration (IC50) on DNA-PK lay within 3 to 7 nM; in data set [1] it was 500 to 5000 nM. On Kv11.1 (hERG), the inhibition constant (Ki) was above 25000 nM.

Take `COc1ccc(C(O)c2cc(-c3ncnc4cc(N5CCOCC5)ccc34)ccc2Cl)nn1` (stereo not drawn) [Example 460, [2-Chloro-5-(7-morpholin-4-yl-quinazolin-4-yl)-phenyl]-(6-methoxy-pyridazin-3-yl)-methanol]: the IC50 against DNA-PK is 3 to 7 nM; in data set [1] it was below 500 nM. Moreover, on Kv11.1 (hERG), the inhibitory constant (Ki) was above 25000 nM.

For `COc1ccc(C(O)c2ccc(F)c(-c3ncnc4cc(N5CCOCC5)cc(F)c34)c2)nn1` (stereo not drawn) [Example 255, [4-Fluoro-3-(5-fluoro-7-morpholin-4-yl-quinazolin-4-yl)-phenyl]-(6-methoxy-pyridazin-3-yl)-methanol], the 50% inhibitory concentration (IC50) against DNA-PK is 7 to 30 nM; in data set [1], below 500 nM. Moreover, the inhibition constant Ki on Kv11.1 (hERG) is above 25000 nM.

For the compound `COc1nnc(Cl)cc1C(O)c1ccc(F)c(-c2ncnc3cc(N4CCOCC4)ccc23)c1` (stereo not drawn) [Example 286, (6-Chloro-3-methoxy-pyridazin-4-yl)-[4-fluoro-3-(7-morpholin-4-yl-quinazolin-4-yl)-phenyl]methanol], the half-inhibitory concentration (IC50) against DNA-PK lay within 7 to 30 nM; in data set [1] it was 5000 to 10000 nM. Moreover, the inhibitory constant (Ki) on Kv11.1 (hERG) is above 25000 nM.

For `Cc1nccnc1[C@@H](O)c1ccc(F)c(-c2ncnc3cc(N4CCOCC4)cc(F)c23)c1` [Example 251, (S)-[4-fluoro-3-(5-fluoro-7-morpholin-4-ylquinazolin-4-yl)-phenyl]-(3-methyl-pyrazin-2-yl)-methanol], the IC50 on DNA-PK lay in the range of 3 to 7 nM; in data set [1], 500 to 5000 nM. Moreover, the Ki on Kv11.1 (hERG) was above 25000 nM.

In the case of `COc1ccc(C(O)c2ccc(F)c(-c3ncnc4cc(N5CCOCC5)c(F)cc34)c2)nn1` (stereo not drawn) [Example 282, [4-Fluoro-3-(6-fluoro-7-morpholin-4-yl-quinazolin-4-yl)-phenyl]-(6-methoxy-pyridazin-3-yl)-methanol], the IC50 was above 30 nM against DNA-PK and 10000 to 30000 nM in data set [1]. For the same compound, the inhibition constant Ki at Kv11.1 (hERG) was above 25000 nM.

As to `OC(c1ccc(F)c(-c2ncnc3cc(N4CCOCC4)ccc23)c1)c1ncnc2ccoc12` (stereo not drawn) [Example 443, [4-fluoro-3-(7-morpholin-4-yl-quinazolin-4-yl)-phenyl]furo[3,2-d}-pyrimidin-4-yl-methanol], the half-maximal inhibitory concentration (IC50) lay within 3 to 7 nM on DNA-PK and 500 to 5000 nM in data set [1]. Besides, the inhibitory constant (Ki) on Kv11.1 (hERG) was above 25000 nM.

Consider `Cc1nccnc1C(C(N)=O)c1ccc(F)c(-c2ncnc3cc(N4CCOCC4)sc23)c1` (stereo not drawn) [Example 270, 2-[4-Fluoro-3-(6-morpholin-4-yl-thieno[3,2-d}-pyrimidin-4-yl)-phenyl]-2-(3-methyl-pyrazin-2-yl)-acetamide], for which the values for the IC50 (at DNA-PK; in data set [1]) were 3 to 7 nM and 5000 to 10000 nM, respectively. Besides, the inhibitory constant (Ki) at Kv11.1 (hERG) was above 25000 nM.
